# In patent US20230000888A1, “NAD-PRECURSORS AND DIETARY RESTRICTION FOR TREATING AGE RELATED MEDICAL CONDITIONS” (Leibniz-Institut für Alternsforschung - …, priority 2019, published 2023):
# Tests used:
# [1] = test system: HSCs (CD150+CD34−Flt3−LSK); test: Culture of freshly isolated HSCs with metabolic inhibitors, total cell numbers by FACS after 5 days; type: cell-based, mice; details: for cell numbers 5 days after initiation of the treatment, HSCs from old mice compared to HSCs from young mice: 2-DG 3 mM, Oligomycin 1.8 nM, 1,500 HSCs per well, FIG. 6C; for cell numbers 5 days after induction of the inhibitor treatment, HSCs from young mice / sensitivity to respond with a reduction in cell growth, HSCs from old mice: inhibitor of mitochondrial nutrient uptake 9 μM, FIG. 6D; for sensitivity to respond with a reduction in cell growth, HSCs from old mice: compared to young
# Method: (C-E) One-thousand-five-hundred, freshly isolated HSCs (CD150^+CD34^−Flt3^−LSK) from young or old mice were cultured per well (96-well plate). (C) HSCs were exposed to 2-DG (3 mM), Oligomycin (=Oligo, 1.8 nM), or DMSO as control (=Con). Total cell numbers per well were determined by FACS after 5 days. Young mice (4 months, n=4) and old mice (24 months, n=6). Data are normally distributed (Shapiro-Wilk test). P-values were calculated by t-test with Welch's correction. Error bars depict SD. (D) HSCs were cultured with inhibitors that block the mitochondrial uptake of […] (BPTES, 9 μM), fatty acids (Etomoxir, 9 μM), or pyruvate (UK5099, 9 μM). Total cell numbers were counted by FACS after 5 days. Young mice (3-4 months, n=5) and old mice (26 months, n=4). Data are normally distributed (Shapiro-Wilk test). P-values were calculated by unpaired t-test with Welch's correction. (E) HSCs were exposed to a combination of 3 inhibitors (3 inhibitors=3I, same as in D) at a concentration of 6 μM (each) or to DMSO (Con). Young mice (2-3 months, n=5) and old mice (30-31 months, n=5). Data are normally distributed (Shapiro-Wilk test). P-values were calculated using 2-way ANOVA with Tukey's multiple comparisons test. Error bars depict SD.
# To test the functional relevance of these aging-associated changes in the proteome of HSCs, freshly isolated HSCs were exposed to treatment with oligomycin (an inhibitor of mitochondrial oxidative phosphorylation) or to treatment with 2-Deoxy-D-glucose (2-DG) in culture. […] Similar results were obtained after inhibition of nutrient influx into mitochondria. In this experiment, freshly isolated HSCs were incubated with compounds that inhibit the influx of nutrients into mitochondria (BPTES for glutamine, Etomoxir for fatty acids, or UK5099 for pyruvate).
# For testing the response of HSPCs to the blocking of glycolysis or mitochondrial ATP synthesis, 2-DG (Sigma, D8375) or oligomycin A (Sigma, 75351) were used. For the inhibition of nutrient uptake into mitochondria, three inhibitors (3I) were used. BPTES (Sigma, SML0601) blocks […] uptake, Etomoxir (Sigma E1905) blocks Fatty acids uptake, and UK5099 (Sigma PZ0160) blocks pyruvate uptake. The final concentration of each inhibitor in the culture medium is 6 μM. Same amount of DMSO was used in the medium as control. For determination of cell number after NR treatment 500 HSCs from young (2-3 months) and old (22-24 months) were pre-incubated either with 1 mM NR (provided by Prof. Johan Auwerx Lab) or DMSO as control for 2 days followed by 2 days treatment with the inhibitors (BPTES, Etomoxir and UK5099, 6 μM each) or same amount of DMSO as control. The cells were then analyzed by BD LSR fortessa.
# [2] = test system: HSCs (CD150+CD34−Flt3−LSK); test: Culture of HSCs from FCCP- or vehicle-treated mice with 3I-treatment, total cell numbers; type: cell-based; details: HSCs from high-dose FCCP-treated young mice; FIG. 6G
# Method: (F,G) Young, 3-4 month old mice were treated within one week with two intraperitoneal injections of FCCP on day-1 and day-4 (high-dose: 4.8 mg/Kg or low-dose: 1.2 mg/Kg) or with vehicle control (10% DMSO) (n=4 mice per group). One week after the start of the treatment (day-7), total bone marrow cells were analyzed and used for culture experiments. […] (G) 2,500 freshly isolated HSCs from vehicle-treated of high-dose FCCP-treated animals were cultured and exposed to 3I-treatment (same concentration as in FIG. 6E) or to vehicle-treatment (Con). The histogram depicts the total cell numbers at 4 days after culture initiation. (F,G) Data are normally distributed (Shapiro-Wilk test) and p-values were calculated using one-way ANOVA (F) and two-way ANOVA (G) with Tukey's multiple comparisons test. Error bars depict SD.
# (§2) To experimentally test whether mitochondrial dysfunction would cause an abrogation of adaptive responses of HSCs to reduction in nutrient availability, young mice were exposed the mitochondrial uncoupler FCCP or vehicle (two injections: day-1 and day-4). One week after the first injection, the mice were analyzed and freshly isolated HSCs of FCCP-treated vs. DMSO-treated mice were exposed in culture to the 3 above described inhibitors of mitochondrial nutrient uptake—a combination of BPTES, Etomoxir, and UK5099, referred to from here on as “3I”.
# [3] = test system: HSCs (CD150+CD34−Flt3−LSK); details: young mice, two i.p. injections (day-1, day-4), 1.2 or 4.8 mg/Kg, 1 week; FIG. 6F
# Method: (F,G) Young, 3-4 month old mice were treated within one week with two intraperitoneal injections of FCCP on day-1 and day-4 (high-dose: 4.8 mg/Kg or low-dose: 1.2 mg/Kg) or with vehicle control (10% DMSO) (n=4 mice per group). One week after the start of the treatment (day-7), total bone marrow cells were analyzed and used for culture experiments. […] (F,G) Data are normally distributed (Shapiro-Wilk test) and p-values were calculated using one-way ANOVA (F) and two-way ANOVA (G) with Tukey's multiple comparisons test. Error bars depict SD.
# as §2
# Young C57BL/6 wild type mice (3 months) male mice were weighed before the injection. […]
# CMPs = details: FIG. 8H
# Method: (H) Young, 3-4-month old mice were treated one week with two intraperitoneal injections of FCCP/week (high-dose: 4.8 mg/Kg or low-dose: 1.2 mg/Kg) or with vehicle control (10% DMSO) (n=4 mice per group). One week after the start of the treatment, CMPs were freshly isolated and exposed for 12h in culture to a combination of 3 inhibitors of mitochondrial nutrient uptake (31: 6 μM of each BPTES, Etomoxir, and UK5099) or DMSO control (Con). Statistical analysis: The data were normally distributed (Shapiro-Wilk) and p-values were calculated by 2-way ANOVA with Tukey's multiple comparisons test. Error bars depict SD.
# To experimentally test this conclusion, CMPs from FCCP-treated vs. control treated young mice (see above) were exposed for 12 hours to 3I-treatment in culture and adaptive response in OCR were measured by Seahorse.
# Young C57BL/6 wild type mice (3 months) male mice were weighed before the injection. The mice were then injected intraperitoneally with low dose (1.2 mg/Kg), high dose (4.82 mg/Kg) of FCCP, or 10% DMSO as control (all drugs were dissolved in 10% DMSO. The drug concentration was adjusted so that the final volume of injection of each injection is 150 pL/mouse. The mice were injected at day 1 and day 4 after weighing. Then they were analyzed at day 6. […]
# [4] = test system: Ldha, Pdha, Nrf1 and Hif1a mRNA in HSCs; test: qPCR of Ldha, Pdha, Nrf1, Hif1a in HSCs after oligomycin-treatment; type: cell-based, mice; details: oligomycin 0.6 μM, 3 hours
# Method: FIG. 8. (A,B) Freshly isolated HSCs (CD150^+CD34^−Flt3^−LSK) from young mice (2-3 months, n=4) and old mice (27-30 months, n=6) were exposed to oligomycin-treatment (0.6 μM) or vehicle control (0.1% DMSO) for 3 hours in culture (7000 HSCs per well of a 96-well plate). Gene expressions (relative to β-actin) of (A) Ldha, (B) Pdha were analyzed by qPCR. […] P-values were calculated on transformed data by unpaired t-test with Welch's correction. Error bars depict SD.
# (E,F) The same HSC cultures that were described in FIG. 8A were used to determine the mRNA expression levels of (E) Nrf1 and (F) Hif1a relative to β-actin by qPCR. N=4 for young groups, n=6 for old groups. One outlier (Grubbs test) was removed for the control groups). […] Error bars depict SD.
# (§1) To further test this hypothesis, we analyzed the adaptability of mitochondrial metabolic pathways in freshly isolated HSPCs from young and old mice. First, we exposed freshly isolated HSCs to Oligomycin or to control treatment and we analyzed the RNA expression of Lactate dehydrogenase A (Ldha) and Pyruvate dehydrogenase A (Pdha) 3 hours after isolation and drug treatment. […] Second, we measured the activity of LDH and PDH in freshly isolated HSCs that were exposed for 20 hours to Oligomycin. […] Again HSCs from old mice were irresponsive (FIG. 8C,D). […] Third, we analyzed OCR in freshly isolated CMPs that were treated for 12 hours with inhibitors of mitochondrial nutrient flow (3I) compared to control treatment. As outlined above, CMPs were used for these respirometry experiments, which need higher cell numbers and thus cannot be conducted on HSCs. […] This increase in OCR in young compared to old CMPs was different from freshly isolated MPs (FIG. 3D) likely due to culture induced activation of OCR in young CMPs, which was impaired in old CMPs by pre-existing, chronic mitochondrial dysfunction.
# [5] = test system: LDH and PDH activity in HSCs; test: Activity of LDH and PDH in cultured HSCs after oligomycin-treatment; type: cell-based, mice; details: oligomycin 2.4 nM, 20 hours
# Method: (C,D) Freshly isolated HSCs (CD150^+CD34^−Flt3^−LSK) from young mice (3-4 months, n=7) and old mice (24-25 months, n=7) were cultured overnight (7,000 HSCs per well of a 96-well plate). Eighteen hours later, HSCs were exposed to oligomycin-treatment (2.4 nM) or vehicle control (0.04% DMSO). After 20h treatment, 1,000 cells from the cultures were isolated by FACS to analyze the activity of (C) LDH and (D) PDH. The histograms depict the data scaled to the average of young, control-treated HSCs set to 1. Data are normally distributed (Shapiro-Wilk test). P-values were calculated by two-way ANOVA with Tukey's multiple comparison tests. Error bars depict SD.
# as §1
smiles,measurement,setting,value
"O=CC[C@@H](O)[C@H](O)[C@H](O)CO [2-DG, 2-Deoxy-D-glucose]","cell numbers 5 days after initiation of the treatment, HSCs from old mice compared to HSCs from young mice",[1],stronger reduction in cell numbers
O=C(Cc1ccccc1)Nc1nnc(CCSCCc2nnc(NC(=O)Cc3ccccc3)s2)s1 [BPTES],"cell numbers 5 days after induction of the inhibitor treatment, HSCs from young mice",[1],strong reduction in cell numbers
same,"sensitivity to respond with a reduction in cell growth, HSCs from old mice",[1],significantly reduced
CCOC(=O)[C@@]1(CCCCCCOc2ccc(Cl)cc2)CO1 [Etomoxir],"cell numbers 5 days after induction of the inhibitor treatment, HSCs from young mice",[1],strong reduction in cell numbers
same,"sensitivity to respond with a reduction in cell growth, HSCs from old mice",[1],significantly reduced
N#CC(C#N)=NNc1ccc(OC(F)(F)F)cc1 [FCCP],response of HSCs to 3I-treatment by reduction in cell expansion,[2],complete abrogation in responding to 3I-treatment
same,number of phenotypic HSCs in bone marrow,[3],dose dependent increase in the number of phenotypic HSCs in bone marrow
same,responsiveness of CMPs to reduce OCRs in response to 3I-treatment in culture,"CMPs; CMPs from FCCP-treated young mice, 3I 6 μM each, 12 h",dose dependent loss in the responsiveness
same,OCR of freshly isolated CMPs,CMPs; in vivo pre-treatment of young mice with FCCP 1.2 or 4.8 mg/Kg,dose dependent reduction in the OCR
N#C/C(=C\c1cn(-c2ccccc2)c2ccccc12)C(=O)O [UK5099],"cell numbers 5 days after induction of the inhibitor treatment, HSCs from young mice",[1],strong reduction in cell numbers
same,"sensitivity to respond with a reduction in cell growth, HSCs from old mice",[1],significantly reduced
"CC[C@H]1/C=C/C=C/C[C@@H](C)[C@H](O)[C@@](C)(O)C(=O)[C@@H](C)[C@H](O)[C@@H](C)C(=O)[C@@H](C)[C@H](O)[C@@H](C)/C=C/C(=O)O[C@@H]2[C@H](C)[C@H](CC1)O[C@]1(CC[C@H](C)[C@H](C[C@@H](C)O)O1)[C@H]2C [oligomycin, oligomycin A]","cell numbers 5 days after initiation of the treatment, HSCs from old mice compared to HSCs from young mice",[1],less responsive to reduce cell growth
same,Ldha and Pdha RNA expression,"[4]; HSCs from old mice, FIG. 8A,B",irresponsive
same,Ldha RNA expression,"[4]; HSCs from young mice, FIG. 8A",significant suppression of Ldha expression
same,Pdha RNA expression,"[4]; HSCs from young mice, FIG. 8B",concomitant increase in Pdha expression
same,LDH and PDH activity,"[5]; HSCs from old mice, FIG. 8C,D",irresponsive
same,LDH activity,"[5]; HSCs from young mice, FIG. 8C",reduction in LDH activity
same,PDH activity,"[5]; HSCs from young mice, FIG. 8D",PDH activity was maintained
